Series [1] concerns U87. Nature of the series: LDH assay (cell lysis), U87. The series is classed as cell-based, human. The settings on record: U87, ABT-737 alone 5 μM, 72 h.
Method: (§1) LDH assays. […] 72 hours after infection, cell lysis was analyzed by LDH assay as described in the materials and methods section. Columns represent the mean values from 3 replicates with relative standard deviation bars.
(§2) H-1PV cytotoxicity was evaluated by quantification of the enzyme lactate dehydrogenase (LDH), which is released from cells due to loss of membrane integrity (lysis). The assay was performed using the CytoTox 96® Non-Radioactive Cytotoxicity Assay Kit according to the manufacturer's instructions (Promega, Heidelberg, Germany).
(§3) Cells were seeded into 96-well plates usually at the density of 4,000 cells/well in 50 μl of their respective culture media supplemented with 10% FBS. […]
(§4) Briefly, 10 μl of 10× lysis buffer [9% (v/v) Triton X-100 (AppliChem, Darmstadt, Germany) in phosphate buffered saline (PBS)] were added per well in three lines of the plate, which served as 100% cell lysis control. […] The absorbance was measured at a wavelength of 492 nm using the Multiscan ELISA Reader. […] For each condition we calculated the average of the three wells incubated (A) or not (B) with lysis buffer. The average value measured in the wells without cells (background) was subtracted from the values obtained in the wells with the cells.
Series [2] deals with peripheral blood mononuclear cells (PBMCs). The conditions noted are these: non malignant PBMCs; read-out: half maximal effective concentration (EC50); cited from earlier work.
For series [3], the system named is U138. Nature of the series: LDH assay (cell lysis), U138. The series is classed as cell-based, human. The conditions noted are these: U138, H-1PV at MOI 5, 0.5 μM inhibitor, 72 h. The procedure: 72 hours after infection, percentage of cells undergoing lysis was measured by LDH assay.
Series [4] has as its system AsPC-1 xenografts. The settings on record: nude rats, treated animals. The procedure:
5×10^6 AsPC-1 cells were subcutaneously injected in the right flank of 5 week-old female nude rats. After 1 week (when tumour reached the volume of 200-400 mm^3), tumour-bearing animals were randomized in to four groups (n=8). […] Tumour volume was measured with a digital calliper on the days indicated and calculated according to the formula: volume […]=width^2× length/2. Rats were sacrificed when the tumour mass reached 4000 mm^3, in keeping with animal welfare regulations. Data shown represents the average values with standard deviation bars.

Series [5] relates to U373, U138, U343 and NCH125 glioma cell lines. Nature of the series: Mitochondrial membrane permeabilization (MitoTracker Red), four glioma cell lines. The series is classed as cell-based, human. The settings on record: ABT-737 0.5-1 μM or H-1PV MOI 2.5-7.5 alone, 48-96 h. On the procedure:
48-96 hours after infection, cells were stained with Mitotracker Red, harvested and analyzed by flow cytometry. The percentage of cells with MMP, was determined using the CellQuest Software. In the upper panel representative histogram plots are shown for each condition. In the lower panel the results of a typical experiment performed in triplicates are shown. Columns represent the mean values with relative standard deviation bars.
The fluorescent dye MitoTracker® Red CMXRos (Molecular Probes, Invitrogen, Darmstadt, Germany) that stains mitochondria in live cells was used to measure the change in MMP. Due to the formation of pores in the mitochondrial membrane, apoptotic cells cannot retain the dye and show a lower fluorescent signal in flow cytometry analysis.
Glioma cells were seeded in 6-well plates at the density of 2.5×10^5 cells/well in 3 ml of cultural medium with the exception of NCH125 cells that were seeded at the density of 6.25×10^4 cells/well. […] Cell suspension was analyzed with a FACSCalibur (BD Biosciences). At least 10,000 events were acquired and analyzed with the CellQuest Software (BD Biosciences). The average of cells undergoing MMP was calculated from three replicates.

Series [6] deals with small-cell lung carcinoma. The settings on record: small-cell lung carcinoma xenograft mouse models; cited from earlier work.
Series [7] deals with human glioma cell lines. The conditions noted are these: ABT-737 alone at the dosages of Table 1, 72 h, all glioma lines except U87.
Method: as §1, §2, §3, §4
The subject of series [8] is human glioma cell lines. Nature of the series: Sub-G1 apoptotic population by flow cytometry, eight glioma cell lines. The class given is cell-based. The conditions noted are these: H-1PV MOI 0.5-7.5 or 0.25-5 μM ABT-737 alone, 48-96 h. On the procedure: The occurrence of DNA fragmentation (sub-G1 cell population) in response to treatment was assessed by propidium iodide staining and flow cytometry in eight human glioma cell lines (a-h). […] Representative histogram plots are shown in the upper panel. […] Columns represent the mean values with relative standard deviation bars (lower panel).
Propidium iodide staining was performed, in order to detect apoptotic cells after treatment. The dye intercalates in the DNA, where it can be measured by flow cytometry. The fluorescence emission is proportional to the DNA content in the cells. Apoptotic cells are characterized by nuclear DNA fragmentation and can be identified by lower fluorescence emission (sub-G1 apoptotic cell population) (Riccardi & Nicoletti, 2006). […]
After 48 (U251, U138, A172, U87, NCH125), 72 (U373) or 96 (U343, NCH37) hours, from infection, supernatant and cells (harvested by trypsinization) were collected and washed with PBS. […] The cell suspension was filtered in a nylon net, and measured on a FACSCalibur (BD Biosciences, San Jose, Calif.). A minimum of 20,000 events were acquired and analyzed with the CellQuest Software (BD Biosciences). Propidium iodide was detected in the FL-2 channel. Untreated cells were used to set the gate for the apoptotic cell fraction, as they show the fluorescence emission of viable non-apoptotic cells. […]
On the technique in general: Flow cytometry measures light scatter and fluorescence of single cells or particles in a stream.

The subject of series [9] is human platelets. The settings on record: in contrast to ABT-737; cited from earlier work.
The test system of series [10] is human hematologic tumour xenograft. The conditions noted are these: several human hematologic tumour xenograft models; cited from earlier work. Background: Xenograft models place foreign cells or tissue in a host animal.

Results on 2 molecules are retold here after patent US10406185B2, “Cancer therapy with a parvovirus combined with a BCL-2 inhibitor” (DEUTSCHES KREBSFORSCHUNGSZENTRUM, priority 2013, dated 2019).

`CN(C)CC[C@H](CSc1ccccc1)Nc1ccc(S(=O)(=O)NC(=O)c2ccc(N3CCN(Cc4ccccc4-c4ccc(Cl)cc4)CC3)cc2)cc1[N+](=O)[O-]` [ABT-737]: the “cytotoxicity of ABT-737 alone” value is recorded as “modestcytotoxic effects” in series [1] and “no apparent cytotoxicity” in [7]. Moreover, the EC50 in [2] was over 1000 nM. The “increase of H-1PV cytotoxicity in comparison to virus alone” value in series [3] is listed as 3.8 fold. Moreover, the “loss of weight or other adverse side effects” value in [4] is given as “No loss of weight or other adverse side effects”. Besides, in series [5], the “effect on MMP, single treatments” value is on record as “almost no effect on the MMP”. Further, the tumour regression entry in series [6] is “complete regression”. For the same molecule, in series [8], the “induction of apoptosis (sub-G1 population), single treatments” value is recorded as “unable to induce apoptosis efficiently”.
Consider `CC1(C)CCC(CN2CCN(c3ccc(C(=O)NS(=O)(=O)c4ccc(NCC5CCOCC5)c([N+](=O)[O-])c4)c(Oc4cnc5[nH]ccc5c4)c3)CC2)=C(c2ccc(Cl)cc2)C1` [ABT-199], for which the “increase of H-1PV cytotoxicity in comparison to virus alone” value in series [3] stood at 1.7 fold. The “effect on human platelets” value in series [9] is on record as “spares human platelets”. Moreover, the tumor growth entry in series [10] is listed as “inhibit tumor growth”.
